# Biological target: T1, mutant CFTR (Homo sapiens, UniProt P13569, DEL508-508)
# T1 construct: expressed in transfected cells
# Experiment: Fluorescence (HS-YFP) assay for CFTR activity, corrector assay
# Format: cell-based
# Conditions: CFBE41o- and FRT cells with stable expression of mutant CFTR, read-out: activity (EC50)
# T1 sequence (P13569 with tags, fused parts or gaps DEL508-508): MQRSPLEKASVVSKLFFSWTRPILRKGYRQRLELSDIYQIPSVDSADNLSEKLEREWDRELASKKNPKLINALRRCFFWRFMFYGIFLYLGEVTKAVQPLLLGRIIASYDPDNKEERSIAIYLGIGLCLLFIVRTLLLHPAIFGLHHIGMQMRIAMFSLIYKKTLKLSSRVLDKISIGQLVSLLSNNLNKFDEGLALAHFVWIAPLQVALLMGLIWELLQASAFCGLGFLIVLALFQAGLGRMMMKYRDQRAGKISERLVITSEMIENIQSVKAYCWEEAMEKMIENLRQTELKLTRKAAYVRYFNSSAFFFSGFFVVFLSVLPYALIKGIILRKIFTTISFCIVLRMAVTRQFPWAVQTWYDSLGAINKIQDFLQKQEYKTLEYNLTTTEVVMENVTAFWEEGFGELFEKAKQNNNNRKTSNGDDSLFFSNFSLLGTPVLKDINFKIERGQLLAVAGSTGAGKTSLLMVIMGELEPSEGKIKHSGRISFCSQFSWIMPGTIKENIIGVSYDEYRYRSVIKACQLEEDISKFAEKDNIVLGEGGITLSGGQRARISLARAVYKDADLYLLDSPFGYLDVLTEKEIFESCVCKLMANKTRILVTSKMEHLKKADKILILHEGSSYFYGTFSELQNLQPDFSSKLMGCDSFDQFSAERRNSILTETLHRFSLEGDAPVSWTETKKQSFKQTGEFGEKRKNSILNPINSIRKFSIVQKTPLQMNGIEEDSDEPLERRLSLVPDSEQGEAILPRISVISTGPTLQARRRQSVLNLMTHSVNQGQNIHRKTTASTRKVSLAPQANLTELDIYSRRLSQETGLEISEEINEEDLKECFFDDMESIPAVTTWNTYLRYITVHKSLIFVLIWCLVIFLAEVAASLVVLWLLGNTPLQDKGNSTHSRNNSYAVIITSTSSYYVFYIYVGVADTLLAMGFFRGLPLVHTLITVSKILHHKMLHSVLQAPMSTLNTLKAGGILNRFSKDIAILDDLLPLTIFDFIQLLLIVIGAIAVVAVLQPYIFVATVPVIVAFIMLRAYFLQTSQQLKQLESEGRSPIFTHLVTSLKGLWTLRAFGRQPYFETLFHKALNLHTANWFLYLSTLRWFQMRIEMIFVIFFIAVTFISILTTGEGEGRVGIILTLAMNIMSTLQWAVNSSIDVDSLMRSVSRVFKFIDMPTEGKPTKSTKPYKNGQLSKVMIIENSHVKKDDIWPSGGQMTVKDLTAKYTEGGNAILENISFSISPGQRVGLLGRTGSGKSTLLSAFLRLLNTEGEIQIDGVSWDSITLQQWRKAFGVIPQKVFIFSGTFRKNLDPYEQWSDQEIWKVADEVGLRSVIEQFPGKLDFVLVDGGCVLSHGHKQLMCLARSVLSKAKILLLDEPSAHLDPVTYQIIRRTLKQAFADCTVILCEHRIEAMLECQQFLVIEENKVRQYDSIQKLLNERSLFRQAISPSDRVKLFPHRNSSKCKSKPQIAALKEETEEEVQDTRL
row,SMILES,EC50 [nM]
1,"CN(C(=O)c1cccc(-n2nc(C(F)(F)F)c3c2C(Oc2ncc(C(=O)O)cn2)COC3)c1)c1cnc2c(c1)OCC2 (racemic) [Compound 300, 2-[[1-[3-[2,3-Dihydrofuro[3,2-b]pyridin-6-yl(methyl)carbamoyl]phenyl]-3-(trifluoromethyl)-6,7-dihydro-4H-pyrano[4,3-c]pyrazol-7-yl]oxy]pyrimidine-5-carboxylic acid]",< 1000
2,"CN(C(=O)c1cccc(-n2nc(C(F)(F)F)c3c2C(n2cc(C(=O)O)ccc2=O)COC3)c1)c1ccc2c(c1)OC(F)(F)O2 (racemic) [Compound 301, (rac)-6-oxo-1-[1-[3-[(2,2-difluoro-1,3-benzodioxol-5-yl)-methyl-carbamoyl]phenyl]-3-(trifluoromethyl)-6,7-dihydro-4H-pyrano[4,3-c]pyrazol-7-yl]pyridine-3-carboxylic acid]",1000 to 2000
3,"CN(C(=O)c1cccc(-n2nc(C(F)(F)F)c3c2C(Oc2ccc(C(=O)O)nn2)CCC3)c1)c1ccc2c(c1)OC(F)(F)O2 (racemic) [Compound 302, 6-[[1-[3-[(2,2-Difluoro-1,3-benzodioxol-5-yl)-methyl-carbamoyl]phenyl]-3-(trifluoromethyl)-4,5,6,7-tetrahydroindazol-7-yl]oxy]pyridazine-3-carboxylic acid]",> 2000
4,"CN(C(=O)c1cccc(-n2nc(C(F)(F)F)c3c2C(Oc2ccc(C(=O)O)cc2)CCC3)c1)c1ccc2c(c1)S(=O)(=O)CC2 (racemic) [Compound 303, 4-[[1-[3-[(1,1-Dioxo-2,3-dihydrobenzothiophen-6-yl)-methyl-carbamoyl]phenyl]-3-(trifluoromethyl)-4,5,6,7-tetrahydroindazol-7-yl]oxy]benzoic acid]",> 2000
5,"CN(C(=O)c1cccc(-n2nc(C(F)(F)F)c3c2C(Oc2ncc(C(=O)O)cn2)COC3)c1)c1cnc2c(c1)CCC2 (racemic) [Compound 305, (rac)-2-[[1-[3-[6,7-dihydro-5H-cyclopenta[b]pyridin-3-yl(methyl)carbamoyl]phenyl]-3-(trifluoro-methyl)-6,7-dihydro-4H-pyrano[4,3-c]pyrazol-7-yl]oxy]pyrimidine-5-carboxylic acid]",< 1000
6,"COc1ncc(N(C)C(=O)c2cccc(-n3nc(C(F)(F)F)c4c3C(Oc3ccc(C(=O)O)cc3)COC4)c2)cn1 (racemic) [Compound 306, 4-[[1-[3-[(2-Methoxypyrimidin-5-yl)-methyl-carbamoyl]phenyl]-3-(trifluoromethyl)-6,7-dihydro-4H-pyrano[4,3-c]pyrazol-7-yl]oxy]benzoic acid]",1000 to 2000
7,"CN(C(=O)c1cccc(-n2nc(C(F)(F)F)c3c2C(Oc2ccc(C(=O)O)cc2)CCC3)c1)c1cncc(F)c1 (racemic) [Compound 307, (rac)-4-[[1-[3-[(5-fluoro-3-pyridyl)methyl-carbamoyl]phenyl]-3-(trifluoromethyl)-4,5,6,7-tetrahydroindazol-7-yl]oxy]benzoic acid]",> 2000
8,"COc1cc(N(C)C(=O)c2cccc(-n3nc(C(F)(F)F)c4c3C(Oc3ccc(C(=O)O)cc3)CCC4)c2)ccc1F (racemic) [Compound 308, 4-[[1-[3-[(4-Fluoro-3-methoxy-phenyl)-methyl-carbamoyl]phenyl]-3-(trifluoromethyl)-4,5,6,7-tetrahydroindazol-7-yl]oxy]benzoic acid]",> 2000
9,"CN(C(=O)c1cccc(-n2nc(C(F)(F)F)c3c2C(Oc2ccc(C(=O)O)cc2)CCC3)c1)c1cncc(Cl)c1 (racemic) [Compound 309, 4-[[1-[3-[(5-chloro-3-pyridyl)-methyl-carbamoyl]phenyl]-3-(trifluoromethyl)-4,5,6,7-tetrahydroindazol-7-yl]oxy]benzoic acid]",> 2000
10,"CN(C(=O)c1cccc(-n2nc(C(F)(F)F)c3c2C(Oc2ccc(C(=O)O)cc2)CCC3)c1)c1cncc(C#N)c1 (racemic) [Compound 310, 4-[[1-[3-[(5-Cyano-3-pyridyl)-methyl-carbamoyl]phenyl]-3-(trifluoromethyl)-4,5,6,7-tetrahydroindazol-7-yl]oxy]benzoic acid]",1000 to 2000
11,"COc1ccc(N(C)C(=O)c2cccc(-n3nc(C(F)(F)F)c4c3C(Oc3ccc(C(=O)O)cc3)CCC4)c2)cc1OC (racemic) [Compound 311, 4-[[1-[3-[(3,4-Dimethoxyphenyl)-methyl-carbamoyl]phenyl]-3-(trifluoromethyl)-4,5,6,7-tetrahydroindazol-7-yl]oxy]benzoic acid]",> 2000
12,"CC(C)Oc1cncc(N(C)C(=O)c2cccc(-n3nc(C(F)(F)F)c4c3C(Oc3ccc(C(=O)O)cc3)CCC4)c2)c1 (racemic) [Compound 312, 4-[[1-[3-[(5-Isopropoxy-3-pyridyl)-methyl-carbamoyl]phenyl]-3-(trifluoromethyl)-4,5,6,7-tetrahydroindazol-7-yl]oxy]benzoic acid]",1000 to 2000
13,"CN(C(=O)c1cccc(-n2nc(C(F)(F)F)c3c2C(Oc2ccc(C(=O)O)cc2)CCC3)c1)c1cnc(OC2CC2)nc1 (racemic) [Compound 313, 4-[[1-[3-[[2-(Cyclopropoxy)pyrimidin-5-yl]-methyl-carbamoyl]phenyl]-3-(trifluoromethyl)-4,5,6,7-tetrahydroindazol-7-yl]oxy]benzoic acid]",1000 to 2000
14,"CN(C(=O)c1cccc(-n2nc(C(F)(F)F)c3c2C(Oc2ccc(C(=O)O)cc2)CCC3)c1)c1ccc(OC(F)F)nc1 (racemic) [Compound 314, 4-[[1-[3-[[6-(Difluoromethoxy)-3-pyridyl]-methyl-carbamoyl]phenyl]-3-(trifluoromethyl)-4,5,6,7-tetrahydroindazol-7-yl]oxy]benzoic acid]",< 1000
15,"CN(C(=O)c1cccc(-n2nc(C(F)(F)F)c3c2C(Oc2ccc(C(=O)O)cc2)CCC3)c1)c1ccnc(C(F)(F)F)c1 (racemic) [Compound 315, 4-[[1-[3-[Methyl-[2-(trifluoromethyl)-4-pyridyl]carbamoyl]phenyl]-3-(trifluoromethyl)-4,5,6,7-tetrahydroindazol-7-yl]oxy]benzoic acid]",1000 to 2000
16,"COc1cc(N(C)C(=O)c2cccc(-n3nc(C(F)(F)F)c4c3C(Oc3ccc(C(=O)O)cc3)CCC4)c2)ccn1 (racemic) [Compound 316, 4-[[1-[3-[(2-methoxy-4-pyridyl)-methyl-carbamoyl]phenyl]-3-(trifluoromethyl)-4,5,6,7-tetrahydroindazol-7-yl]oxy]benzoic acid]",1000 to 2000
17,"CC(C)Oc1cc(N(C)C(=O)c2cccc(-n3nc(C(F)(F)F)c4c3C(Oc3ccc(C(=O)O)cc3)CCC4)c2)ccn1 (racemic) [Compound 317, 4-[[1-[3-[(2-Isopropoxy-4-pyridyl)-methyl-carbamoyl]phenyl]-3-(trifluoromethyl)-4,5,6,7-tetrahydroindazol-7-yl]oxy]benzoic acid]",1000 to 2000
18,"CN(C(=O)c1cccc(-n2nc(C(F)(F)F)c3c2C(Oc2ccc(CC(=O)O)cc2)CCC3)c1)c1ccc2c(c1)OC(F)(F)O2 (racemic) [Compound 318, 2-[4-[[1-[3-[(2,2-Difluoro-1,3-benzodioxol-5-yl)-methyl-carbamoyl]phenyl]-3-(trifluoromethyl)-4,5,6,7-tetrahydroindazol-7-yl]oxy]phenyl]acetic acid]",< 1000
19,"CN(C(=O)c1cccc(-n2nc(C(F)(F)F)c3c2C[C@H]2CC[C@@H]3N2)c1)c1ccc2c(c1)OCO2 (single isomer, unassigned) [Compound 048, (4R,7S)- or (4S,7R)—N-(Benzo[d][1,3]dioxol-5-yl)-N-methyl-3-(3-(trifluoromethyl)-5,6,7,8-tetrahydro-4,7-epiminocyclohepta [c]pyrazol-1(4H)-yl)benzamide]",< 1000
20,"CN(C(=O)c1cccc(-n2nc(C(F)(F)F)c3c2C[C@H]2CC[C@@H]3N2C)c1)c1ccc2c(c1)OCO2 (single isomer, unassigned) [Compound 050, (4R,7S)- or (4S,7R)—N-(Benzo[d][1,3]dioxol-5-yl)-N-methyl-3-(9-methyl-3-(trifluoromethyl)-5,6,7,8-tetrahydro-4,7-epiminocyclohepta[c]pyrazol-1(4H)-yl)benzamide]",< 1000
21,"CN(C(=O)c1cccc(-n2nc(C(F)(F)F)c3c2C[C@H]2CC[C@@H]3N2C(=O)OC(C)(C)C)c1)c1ccc2c(c1)OCO2 (single isomer, unassigned) [Compound 052, (4R,7S)- or (4S,7R)-tert-Butyl-1-(3-(benzo[d][1,3]dioxol-5-yl(methyl)carbamoyl)phenyl)-3-(trifluoromethyl)-1,4,5,6,7,8-hexahydro-4,7-epiminocyclohepta[c]pyrazole-9-carboxylate]",< 1000
22,"CN(C(=O)c1cccc(-n2nc(C(F)(F)F)c3c2C[C@@H]2CC[C@H]3N2C(=O)OC(C)(C)C)c1)c1ccc2c(c1)OCO2 (single isomer, unassigned) [Compound 053, (4S,7R)- or (4R,7S)-tert-Butyl-1-(3-(benzo[d][1,3]dioxol-5-yl(methyl)carbamoyl)phenyl)-3-(trifluoromethyl)-1,4,5,6,7,8-hexahydro-4,7-epiminocyclohepta[c]pyrazole-9-carboxylate]",< 1000

# Same assay, conditions: activity (EC50), CFBE41o- and FRT cells with stable expression of mutant CFTR
row,SMILES,EC50 [nM]
1,"CN(C(=O)c1cccc(-n2nc(C(F)(F)F)c3c2C[C@@H]2CC[C@H]3N2)c1)c1ccc2c(c1)OCO2 (single isomer, unassigned) [Compound 049, (4S,7R)- or (4R,7S)—N-(Benzo[d][1,3]dioxol-5-yl)-N-methyl-3-(3-(trifluoromethyl)-5,6,7,8-tetrahydro-4,7-epiminocyclohepta [c]pyrazol-1(4H)-yl)benzamide]",1000 to 2000
2,"CN(C(=O)c1cccc(-n2nc(C(F)(F)F)c3c2C[C@@H]2CC[C@H]3N2C)c1)c1ccc2c(c1)OCO2 (single isomer, unassigned) [Compound 051, (4S,7R)- or (4R,7S)—N-(Benzo[d][1,3]dioxol-5-yl)-N-methyl-3-(9-methyl-3-(trifluoromethyl)-5,6,7,8-tetrahydro-4,7-epiminocyclohepta[c]pyrazol-1(4H)-yl)benzamide]",1000 to 2000

# Source: patent US10968225B2, “Compounds and compositions for the treatment of cystic fibrosis” (Fondazione Istituto Italiano Di Tecnologia, priority 2017, dated 2021)
